These are literature values, as cited in article PMC5571359, “Screening the Medicines for Malaria Venture Pathogen Box across Multiple Pathogens Reclassifies Starting Points for Open-Source Drug Discovery” (Antimicrobial Agents and Chemotherapy, 2017).

pEC50, pIC50: −log10 of the molar value.

The subject of the first data set is P. falciparum ABS. As to conditions: ChEMBL Data, NITD; read-out: NITD (ref 94) EC50; cited from earlier work.
Regarding `Cc1cc(Cl)c(S(=O)(=O)N2CCCC2)cc1OCC(=O)NC1CCCCC1` [MMV006833], the pEC50 was 7.00.

Still in this data set, the particulars now being: ChEMBL Data, TCMDC; read-out: TCMDC (ref 93) EX50; cited from earlier work.
As for `CCC(NC(=O)c1ccccc1NC(=O)c1ccc(C)cc1)C(=O)OC` (stereo not shown) [MMV019551], the pEC50 was 6.12.

Staying with this data set, now noted: P. falciparum 3D7; ref PBox supporting information; read-out: Pf 3D7 Pbox IC50; cited from earlier work.
One may read the pIC50 as −log10 of the IC50, conventionally taken in molar units. Consider `O=C(c1ccc(NCCO)cc1)C1C[C@H]1c1ccc(Cl)cc1` (stereo partly shown) [MMV676877], for which the pIC50 was 6.18.

Still in this data set, the particulars now being: Pf 3D7; ref Pathogen Box supporting information; read-out: Pf 3D7 Pbox IC50; cited from earlier work.
For `CCC(NC(=O)c1ccccc1NC(=O)c1ccc(C)cc1)C(=O)OC` (stereo not shown) [MMV019551], the pIC50 was 6.80.
In the case of `Cc1cc(Cl)c(S(=O)(=O)N2CCCC2)cc1OCC(=O)NC1CCCCC1` [MMV006833], the pIC50 was 6.52.

In another data set the test system is HepG2. The settings on record: HepG2; ref PBox supporting information; cited from earlier work.
On to `CC(C)C(Oc1cccc2ccccc12)C(=O)O` (stereo not shown) [MMV676191], for which the “HepG2 PBox CC20” value is over 80 µM.
Regarding `Nc1ncnc2c1c(Cc1cccc3ccccc13)nn2CC1CCNCC1` [MMV676182], the “HepG2 PBox CC20” value is over 80 µM.
For `COc1cc(NC(=O)Cc2nn(C)c(=O)c3ccccc23)ccc1Cl` [MMV676053], the “HepG2 PBox CC20” value is over 80 µM.
Regarding `Clc1ccc(-n2cc(COc3ccnc4ccccc34)nn2)cc1` [MMV675994], the “HepG2 PBox CC20” value was 13.6 µM.

The data set is the same for the next values; noted with them: HepG2 CC20; ref Pathogen Box supporting information; cited from earlier work.
Regarding `O=C(Nc1nnc(S)s1)c1cc(Br)ccc1Cl` [MMV676492], the “HepG2 PBox CC20 μMc” value is over 80 µM.

The same data set, now with this note: cited from earlier work.
Take `O=C1O[C@@H](COc2ccon2)CN1c1cc(F)c(C2=CCN(Cc3ccccc3)CC2)c(F)c1` [MMV687813]: the CC50 is 30.4 µM.
As to `Cc1cc(O)nc(-n2nc(C)cc2C)n1` [MMV393995], the CC50 is 60.7 µM.
`CN1CCC[C@@H]1CCO[C@](C)(c1ccccc1)c1ccc(Cl)cc1` [MMV637229, clemastine, reference compound]: the “HepG2 PBox CC20 μMc” value was 9.3 µM.
In the case of `CC1(C)OB(O)c2ccc(C3=NOC(c4cc(Cl)c(F)c(Cl)c4)(C(F)(F)F)C3)cc21` (stereo not shown) [MMV687775], the “HepG2 PBox CC20 μMc” value is 15.4 µM.
`Cc1nn(Cc2ccccc2)c(Cl)c1C(=O)NC1CCCCCC1` [MMV063404]: the CC50 was over 100 µM.

The same data set, now with this note: read-out: HepG2 PBox CC50 µM; HepG2 cytotoxicity; ref PBox supporting information; cited from earlier work.
Take `CCOC(=O)NC(=O)c1ccsc1NC(=O)c1nc2ccccc2s1` [MMV090930]: the CC50 was 47 µM.
In the case of `CC1=NN(c2nc3ccccc3s2)C(=O)C1Cc1cccc2ccccc12` (stereo not shown) [MMV676558], the CC50 is 21.9 µM.
As to `CC(=O)NCC1CN(c2ccc(-c3ccc(CNCc4cn[nH]n4)cc3)c(F)c2)C(=O)O1` (stereo not shown) [MMV688327], the CC50 is over 100 µM.
As for `O=C(Nc1nnc(-c2ccc(Cl)cc2)o1)c1cccc(C(F)(F)F)c1` [MMV102872], the CC50 was 9 µM.
For the molecule `CCCc1ccc(S(=O)(=O)Nc2ccc(CN3CCN(CC4CC4)CC3)cc2)cc1` [MMV688125], the CC50 is 17.7 µM.
Turning to `Nc1c2c(nc3sc4c(c13)CCCC4)CCCC2` [MMV676588], the CC50 was 34.9 µM.
As for `Cc1ccc2nc(Cl)c(CNCc3cccs3)cc2c1` [MMV676439], the CC50 was over 100 µM.
Take `O=C(C1CCN(c2cc(-n3cccc3)ncn2)CC1)N1CCc2ccccc2C1` [MMV687172]: the CC50 was over 100 µM.
In the case of `CCCCS(=O)(=O)Nc1ccc2cnn(C)c2c1` [MMV687145], the CC50 is over 100 µM.
In the case of `CC(C)n1ncc2c(C(=O)NCC(c3cccs3)N3CCOCC3)cc(-c3ccccc3)nc21` (stereo not shown) [MMV676406], the CC50 is 58 µM.
In the case of `CCCn1c(CNc2ccccc2O)nc2ccccc21` [MMV676445], the CC50 is 84.1 µM.
On to `O=C(NC1=NCCS1)c1sc2cc(F)ccc2c1Cl` [MMV676584], for which the CC50 was over 100 µM.
Regarding `COC(=O)c1c(NC(=O)c2c(F)c(F)c(F)c(F)c2F)sc2c1CCCCC2` [MMV461553], the CC50 was 7.5 µM.
As to `Cc1cc(C)cc(COc2ccc3c(C)c(CCC(=O)O)c(=O)oc3c2C)c1` [MMV676476], the CC50 was over 100 µM.
With `N#Cc1ccc(-c2ccc(OCC(N)=O)cc2)cc1` [MMV053220], the CC50 is over 100 µM.
Turning to `NC(=O)c1cc(Br)ccc1OCCOc1ccccc1` [MMV687243], the CC50 is over 100 µM.
`COc1cc(C(F)(F)F)nc2ccc(C)c(N)c12` [MMV047015]: the CC50 was over 100 µM.
For `N#Cc1nc(-c2ccccc2F)oc1NCCc1ccccc1` [MMV676384], the CC50 is over 100 µM.
Take `O=C(c1cc2ccccc2o1)N1CCN(Cc2ccc3c(c2)OCO3)CC1` [MMV676520]: the CC50 was over 100 µM.
`COc1ccc(Nc2ccccc2NC(=O)c2ccc(O)nc2)cc1` [MMV676554]: the CC50 is 42.5 µM.
As to `COc1ccc(OC(C)C(=O)Nc2ccc(Cl)cc2C)cc1` (stereo not shown) [MMV202458], the CC50 is over 100 µM.
For the molecule `Nc1ncnc2c1ncn2[C@@H]1O[C@H](COS(=O)(=O)NC(=O)c2ccccc2O)[C@@H](O)[C@H]1O` [MMV687700], the CC50 was over 100 µM.
As for `COc1ccc(C2(C(=O)Nc3ccc(Br)cc3)CCCC2)cc1` [MMV200748], the CC50 is over 100 µM.
As to `CCc1nc2ccc(Cl)cn2c1C(=O)NCc1ccc(N2CCC(c3ccc(OC(F)(F)F)cc3)CC2)cc1` [MMV687696], the CC50 is over 100 µM.
Turning to `CCC(C)NC(=O)c1ccc(NC(=O)C2(c3ccccc3)CCCC2)cc1` (stereo not shown) [MMV146306], the CC50 was over 100 µM.
`O=C(CCC1CCCCC1)Nc1cccc(-c2nnc(-c3ccco3)o2)c1` [MMV676589]: the CC50 was over 100 µM.
In the case of `c1coc(CNc2nc(N3CCCCC3)nc3ccccc23)c1` [MMV676401], the CC50 was 18.6 µM.
For `NC(=O)c1cc(-c2ccsc2)ccc1OCCOc1ccccc1` [MMV687138], the CC50 is over 100 µM.
With `COc1ccc(-c2cc(NC(=O)c3ccc(F)cc3Cl)ccc2OC)cc1` [MMV676526], the CC50 was over 100 µM.
With `O=C(C1CCN(c2nnc(-n3cccc3)s2)CC1)N1CCC(Cc2ccccc2)CC1` [MMV676478], the CC50 was over 100 µM.
On to `Cc1ccc2oc(-c3cc(NC(=O)Cc4ccccc4)ccc3Cl)nc2c1` [MMV676509], for which the CC50 was 83.6 µM.
With `COc1ccc2nc(C)cc(OCC(=O)NCc3ccccc3)c2c1` [MMV687189], the CC50 was over 100 µM.
Consider `COc1ccc(Cn2cnc3c(-c4ccco4)nc(Cl)nc32)cc1` [MMV687170], for which the CC50 is over 100 µM.
`Cc1cc(C)c2cc(C(=O)NC3CCCCCCC3)[nH]c2c1` [MMV687146]: the CC50 is over 100 µM.
For `Brc1c(-c2ccc3c(c2)OCO3)nc2ncccn12` [MMV676377], the CC50 was over 100 µM.
For the molecule `CCC(Sc1nc2ccccc2o1)C(=O)Nc1nnc(C)s1` (stereo not shown) [MMV611037], the CC50 is over 100 µM.
With `N#Cc1nc(-c2ccccc2)oc1S(=O)(=O)c1ccc(Cl)cc1` [MMV676412], the CC50 was 2.2 µM.
Regarding `CCCCOC(=O)Nc1cc2nc(C3CCCCC3)[nH]c2cc1N1CCCC1` [MMV687730], the CC50 was 26.8 µM.
Turning to `Cc1cccc(Cn2ccc(NC(=O)c3ccc4c(c3)OCO4)n2)c1` [MMV676386], the CC50 is over 100 µM.
As for `CCc1ccc([C@@H]2C[C@H](C(F)(F)F)n3ncc(C(=O)NCc4ccc(OC)cc4)c3N2)cc1` [MMV687180], the CC50 was 50.6 µM.
Regarding `Cc1nc2ccccn2c1C(=O)NCc1ccc(Cl)cc1` [MMV012074], the CC50 was over 100 µM.
On to `CCOc1ccc(OCC(=O)Nc2cc(C)cc(C)c2)cc1` [MMV676470], for which the CC50 was over 100 µM.

Still in this data set, the particulars now being: read-out: HepG2 PBox CC50; HepG2; ref PBox supporting information; cited from earlier work.
In the case of `O=C(NCc1ccoc1)N1CCN(Cc2ccc3c(c2)OCO3)CC1` [MMV688553], the CC50 was over 100 µM.
Turning to `OC[C@H]1O[C@@H](n2c3ccc(Cl)cc3c3c(-c4cc5ccccc5o4)ncnc32)C(O)[C@H]1O` (stereo partly shown) [MMV688921], the CC50 is 10 µM.
As to `CC(C)(C)OC(=O)N1CCN(c2nccc(-c3ccc(-c4ccc(Cl)cc4)s3)n2)CC1` [MMV688416], the CC50 is over 50 µM.
In the case of `O=C1[C@@H](Oc2ccccc2)[C@@H](c2ccc(Cl)cc2)N1CCn1cnc2c(NCc3ccccc3)ncnc21` [MMV688352], the CC50 is 3 µM.
For the molecule `COC(=O)c1ccc(F)cc1NS(=O)(=O)c1cccc(-c2cnn(Cc3ccccc3)c2)c1` [MMV688350], the CC50 was 10 µM.
Take `Cn1ccnc1CNCCS(=O)(=O)c1cccc(Nc2ccc(-c3cccc(F)c3)cn2)c1` [MMV688466]: the CC50 is 46.1 µM.
Regarding `CC(=O)NCC1CN(c2ccc(-c3ccc(CO)cc3)c(F)c2)C(=O)O1` (stereo not shown) [MMV688508], the CC50 was over 100 µM.
Regarding `CC(C)(C)C(=O)N(CCCCCCN1C[C@H](O)[C@@H](O)[C@H](O)[C@H]1CO)C1CCCCCC1` [MMV688543], the CC50 was over 50 µM.

Still in this data set, the particulars now being: ref Pbox supporting information; cited from earlier work.
With `CCc1nc2ccc(C(=O)NCc3ccc4c(c3)OCO4)cn2c1N(C)Cc1cccs1` [MMV407539], the “HepG2 PBox CC20 μMc” value is 18.6 µM.
As to `COc1ccc(-c2nnc3ccc(-c4cccc(C(C)C)c4)cn23)cc1OC` [MMV688313], the “HepG2 PBox CC20 μMc” value was 7.5 µM.
In the case of `Nc1ncc(-c2ccc(C(F)(F)F)nc2)cc1-c1ccc(C(F)(F)F)nc1` [MMV668727], the “HepG2 PBox CC20 μMc” value is over 80 µM.
Regarding `c1ccc(Oc2ccc(-c3cncc(-c4ccc5[nH]ccc5c4)n3)cc2)cc1` [MMV688178], the “HepG2 PBox CC20 μMc” value was 25.7 µM.
On to `CCS(=O)(=O)N(Cc1ccco1)Cc1cc2ccc(C)cc2nc1O` [MMV676398], for which the “HepG2 PBox CC20 μMc” value was over 80 µM.
On to `Cc1nn(C(=O)Nc2cccc(C(F)(F)F)c2)c(C)c1Sc1ncccn1` [MMV688552], for which the “HepG2 PBox CC20 μMc” value was 30.7 µM.
Turning to `COc1ccc(N(CCc2cccc(C)n2)C(=O)C2CCCCC2)cc1` [MMV675996], the “HepG2 PBox CC20 μMc” value is over 80 µM.
In the case of `Cn1ncc2c(N3CCOCC3)nc(NCCc3c[nH]c4ccccc34)nc21` [MMV676382], the “HepG2 PBox CC20 μMc” value was 4.6 µM.
For `Oc1c(I)cc(I)c2cccnc12` [MMV002817], the “HepG2 PBox CC20 μMc” value was 2.5 µM.
In the case of `COc1ccc(N(CCc2cccc(C)n2)C(C)=O)cc1` [MMV675995], the “HepG2 PBox CC20 μMc” value was over 80 µM.
On to `COCC(C)NC(=O)CSc1ncnc2sc(-c3ccccc3)cc12` (stereo not shown) [MMV676536], for which the “HepG2 PBox CC20 μMc” value is over 80 µM.
Consider `Cc1ccccc1C(=O)N1N=C(Nc2ccccc2)SC1(C)C` [MMV688771], for which the “HepG2 PBox CC20 μMc” value is 8 µM.
With `Cc1cc(OCC(=O)Nc2ccc(C(C)C)cc2)n(C)c(=O)c1C#N` [MMV1198433], the “HepG2 PBox CC20 μMc” value is over 80 µM.
Turning to `COC(=O)c1c(NC(=O)c2cc3ccccc3oc2=O)sc2c1CCN(Cc1ccccc1)C2` [MMV676480], the “HepG2 PBox CC20 μMc” value was 12.3 µM.
